Reference: patent publication US12247029B2, “Heterocyclic compounds as class II phosphoinositide 3-kinase inhibitors” (Forschungsverbund Berlin e.V., priority 2018, dated 2025)
pIC50: −log10 of the molar value.

Target: PI3KC2α Δ1-298 (Homo sapiens (Human), UniProt O00443)
Assay: ADP-Glo kinase assay with purified PI3KC2α Δ1-298
Assay type: biochemical
Details: for pIC50: read-out: IC50 (PI3KC2α; ADP-Glo™ assay)
Experimental: Previous studies have shown that PI3KC2α can utilize phosphatidylinositol (PI) or phosphatidylinositol 4-phosphate [PI(4)P] to produce PI(3)P or PI(3,4)P2 respectively but with a preference for PI(3,4)P2 production. To verify that purified PI3KC2α Δ1-298 is active, a radioactive kinase assay was performed with PI as a substrate and different amounts of purified PI3KC2α Δ1-298. The lipid product [PI(3)P] was separated on TLC plates, and the PI(3)P signal was correlated with the amount of PI3KC2α used (FIG. 4A). […] After having confirmed the activity of purified PI3KC2α Δ1-298, an assay suitable for high content screens in multiwell format (ADP-Glo™ assay) was established. The ADP-Glo™ assay has been used for universal detection of ATP hydrolysis. This assay measures ATP hydrolysis occurring during a kinase reaction. For detection, generated ADP is re-converted into ATP with the […] and converted into light by the Ultra-Glo™ Luciferase reagent. The luminescent signal reports kinase activity (FIG. 4B).
The ADP-Glo™ assay was first used to determine the linear correlation range of signal with different amounts of kinase, and then to assess the Kms for ATP and for PI. […] Further optimization of this assay allowed us to carry out medium-to-high throughput screening using low amounts of purified enzyme (at fixed concentrations of: ATP=40 μM, PI=200 μM, PI3KC2α A1−298=10 ng/μl).
Primary screens were performed using the ADP-Glo™ assay in a 384-well format. 37, 224 small molecules were screened for their ability to inhibit kinase activity of PI3KC2α Δ1-298. The concentration of each compound used in the primary screens was 10 μM. Kinase incubations with ATP but without PI were used as negative control samples. This primary screen turned out to be robust with an average z′ factor of 0.57, and therefore judged as successful.
ADP-Glo kinase assay was performed as described by the manufacturer's protocol. Briefly, the kinase assay was performed with a […] of liver PI/ATP/purified PI3KC2α for 20 min in kinase reaction buffer described above. To deplete the remaining ATP from the reaction, 5 μl of […] was added to the kinase reaction mixture and incubated for 40 min. For detection, the generated ADP is re-converted into ATP and converted into light by the Ultra-Glo™ luciferase in kinase detection reagent. The luminescent signal positively correlates with kinase activity. All reactions are performed in Corning® 384 well-white plates.

Sequence of PI3KC2α Δ1-298 (O00443 299-1686): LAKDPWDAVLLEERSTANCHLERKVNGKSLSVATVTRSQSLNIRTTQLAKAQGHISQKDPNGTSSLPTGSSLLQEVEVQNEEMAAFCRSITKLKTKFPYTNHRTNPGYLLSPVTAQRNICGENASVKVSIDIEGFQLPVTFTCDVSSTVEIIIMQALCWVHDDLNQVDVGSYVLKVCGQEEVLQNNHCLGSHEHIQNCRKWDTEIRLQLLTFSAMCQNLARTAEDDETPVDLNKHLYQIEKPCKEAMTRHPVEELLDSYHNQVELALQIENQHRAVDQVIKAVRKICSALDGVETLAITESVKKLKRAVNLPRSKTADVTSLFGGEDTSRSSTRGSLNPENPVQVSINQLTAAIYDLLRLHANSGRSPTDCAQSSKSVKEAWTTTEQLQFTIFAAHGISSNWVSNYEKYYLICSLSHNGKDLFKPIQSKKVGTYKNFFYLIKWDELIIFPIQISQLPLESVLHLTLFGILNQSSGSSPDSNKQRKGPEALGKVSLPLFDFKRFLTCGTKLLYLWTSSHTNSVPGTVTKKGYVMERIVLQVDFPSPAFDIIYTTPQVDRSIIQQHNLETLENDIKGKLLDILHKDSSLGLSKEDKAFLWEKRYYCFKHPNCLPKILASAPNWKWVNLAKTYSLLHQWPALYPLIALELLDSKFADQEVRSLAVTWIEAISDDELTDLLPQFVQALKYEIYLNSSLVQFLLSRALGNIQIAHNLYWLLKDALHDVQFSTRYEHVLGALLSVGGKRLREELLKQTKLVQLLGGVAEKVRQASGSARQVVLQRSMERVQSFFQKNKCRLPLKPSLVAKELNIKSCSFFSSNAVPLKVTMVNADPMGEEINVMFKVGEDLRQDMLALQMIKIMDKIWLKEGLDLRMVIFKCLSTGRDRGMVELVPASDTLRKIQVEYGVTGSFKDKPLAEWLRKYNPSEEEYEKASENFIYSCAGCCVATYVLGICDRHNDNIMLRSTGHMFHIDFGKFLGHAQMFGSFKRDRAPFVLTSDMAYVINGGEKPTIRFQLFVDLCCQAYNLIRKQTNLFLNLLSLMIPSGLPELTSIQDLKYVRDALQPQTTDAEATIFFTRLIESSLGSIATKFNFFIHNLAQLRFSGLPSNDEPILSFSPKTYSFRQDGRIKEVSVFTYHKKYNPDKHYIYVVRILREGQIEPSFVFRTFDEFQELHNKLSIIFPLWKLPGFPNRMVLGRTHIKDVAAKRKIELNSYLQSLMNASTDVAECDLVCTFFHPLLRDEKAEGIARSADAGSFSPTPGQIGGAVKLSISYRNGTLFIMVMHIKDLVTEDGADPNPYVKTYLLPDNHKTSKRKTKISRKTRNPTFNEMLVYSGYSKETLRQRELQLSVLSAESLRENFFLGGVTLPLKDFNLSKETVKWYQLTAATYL

Structure (SMILES) | pIC50 | inhibition at 10 µM [%]
O=C(CSc1nc2nccnc2c(=O)n1-c1ccccc1)Nc1nccs1 [Example Compound 40, 2-((4-Oxo-3-phenyl-3,4-dihydropteridin-2-yl)thio)-N-(thiazol-2-yl)acetamide] | 5.18 | –
C[C@@H](c1ccccc1)n1c(SCc2nc3ccccc3[nH]2)nc2nccnc2c1=O [Example Compound 90, (S)-2-(((1H-Benzo[d]imidazol-2-yl)methyl)thio)-3-(1-phenylethyl)pteridin-4(3H)-one] | 4.80 | –
O=c1c2nccnc2nc(SCc2ncc[nH]2)n1CCc1ccccc1 [Example Compound 76, 2-(((1H-Imidazol-2-yl)methyl)thio)-3-phenethylpteridin-4(3H)-one] | 4.66 | –
O=C(CSc1nc2nccnc2c(=O)n1CCc1ccccc1)c1ccccc1F [Example Compound 64, 2-((2-(2-Fluorophenyl)-2-oxoethyl)thio)-3-phenethylpteridin-4(3H)-one] | – | 35
O=C(CCc1nc2nccnc2c(=O)n1CCc1ccccc1)NCc1ccccc1 [Example Compound 101, N-Benzyl-3-(4-oxo-3-phenethyl-3,4-dihydropteridin-2-yl)propanamide] | – | 28
COc1cccc(-c2csc(NC(=O)CSc3nc4nccnc4c(=O)n3CCc3ccccc3)n2)c1 [Example Compound 31, N-(4-(3-Methoxyphenyl)thiazol-2-yl)-2-((4-oxo-3-phenethyl-3,4-dihydropteridin-2-yl)thio)acetamide] | 5.62 | –
O=C(CSc1nc2nccnc2c(=O)n1CCc1cccc(F)c1)Nc1nccs1 [Example Compound 4, 2-((3-(3-Fluorophenethyl)-4-oxo-3,4-dihydropteridin-2-yl)thio)-N-(thiazol-2-yl)acetamide] | 6.08 | –
O=C(CSc1nc2nccnc2c(=O)n1CCc1ccccc1)Nc1ncco1 [Example Compound 14, N-(Oxazol-2-yl)-2-((4-oxo-3-phenethyl-3,4-dihydropteridin-2-yl)thio)acetamide] | 5.55 | –
O=C(CSc1nc2nccnc2c(=O)n1CCc1ccccc1)Nc1ncc(Cl)s1 [Example Compound 45, N-(5-Chlorothiazol-2-yl)-2-((4-oxo-3-phenethyl-3,4-dihydropteridin-2-yl)thio)acetamide] | 4.46 | –
Cc1ccc(-c2csc(NC(=O)CSc3nc4nccnc4c(=O)n3CCc3ccccc3)n2)s1 [Example Compound 30, N-(4-(5-Methylthiophen-2-yl)thiazol-2-yl)-2-((4-oxo-3-phenethyl-3,4-dihydropteridin-2-yl)thio)acetamide] | 5.24 | –
Nc1cccc(-c2csc(NC(=O)CSc3nc4nccnc4c(=O)n3CCc3ccccc3)n2)c1 [Example Compound 59, N-(4-(3-Aminophenyl)thiazol-2-yl)-2-((4-oxo-3-phenethyl-3,4-dihydropteridin-2-yl)thio)acetamide] | 6.82 | –
O=C(CSc1nc2nccnc2c(=O)n1CC(F)(F)c1ccccc1)Nc1nccs1 [Example Compound 18, 2-((3-(2,2-Difluoro-2-phenylethyl)-4-oxo-3,4-dihydropteridin-2-yl)thio)-N-(thiazol-2-yl)acetamide] | 5.64 | –
O=C(CSc1nc2nccnc2c(=O)n1CCc1ccccc1)Nc1ncccn1 [Example Compound 20, 2-((4-Oxo-3-phenethyl-3,4-dihydropteridin-2-yl)thio)-N-(pyrimidin-2-yl)acetamide] | 5.70 | –
O=C(CSc1nc2nccnc2c(=O)n1-c1cccc(-c2ccccc2)c1)Nc1nccs1 [Example Compound 17, 2-((3-([1,1′-Biphenyl]-3-yl)-4-oxo-3,4-dihydropteridin-2-yl)thio)-N-(thiazol-2-yl)acetamide] | 5.05 | –
CS(=O)(=O)c1ccc(-c2csc(NC(=O)CSc3nc4nccnc4c(=O)n3CCc3ccccc3)n2)cc1 [Example Compound 53, N-(4-(4-(Methylsulfonyl)phenyl)thiazol-2-yl)-2-((4-oxo-3-phenethyl-3,4-dihydropteridin-2-yl)thio)acetamide] | 5.89 | –
O=c1c2nccnc2nc(SCc2nc3ccccc3[nH]2)n1C1Cc2ccccc2C1 [Example Compound 88, 2-(((1H-Benzo[d]imidazol-2-yl)methyl)thio)-3-(2,3-dihydro-1H-inden-2-yl)pteridin-4(3H)-one] | 6.89 | –
CS(=O)(=O)c1ccc(-n2c(SCc3nc4ccccc4[nH]3)nc3nccnc3c2=O)cc1 [Example Compound 79, 2-(((1H-Benzo[d]imidazol-2-yl)methyl)thio)-3-(4-(methylsulfonyl)phenyl)pteridin-4(3H)-one] | 6.04 | –
CS(=O)(=O)Nc1ccc(-c2csc(NC(=O)CSc3nc4nccnc4c(=O)n3CCc3ccccc3)n2)cc1 [Example Compound 2, N-(4-(4-(Methylsulfonamido)phenyl)thiazol-2-yl)-2-((4-oxo-3-phenethyl-3,4-dihydropteridin-2-yl)thio)acetamide] | 5.77 | –
O=C(CSc1nc2nccnc2c(=O)n1Cc1ccco1)Nc1nccs1 [Example Compound 32, 2-((3-(Furan-2-ylmethyl)-4-oxo-3,4-dihydropteridin-2-yl)thio)-N-(thiazol-2-yl)acetamide] | 5.74 | –
N#Cc1ccc(-n2c(SCC(=O)Nc3nccs3)nc3nccnc3c2=O)cc1 [Example Compound 85, 2-((3-(4-Cyanophenyl)-4-oxo-3,4-dihydropteridin-2-yl)-thio)-N-(thiazol-2-yl)acetamide] | 5.92 | –
CC(C)(C)OC(=O)N1CCC(n2c(SCc3nc4ccccc4[nH]3)nc3nccnc3c2=O)CC1 [Example Compound 94, tert-Butyl 4-(2-(((1H-benzo[d]imidazol-2-yl)methyl)thio)4-oxopteridin-3(4H)-yl)piperidine-1-carboxylate] | 5.92 | –
Cn1c(=O)c2nc(CSc3nc4nccnc4c(=O)n3CCc3ccccc3)[nH]c2n(C)c1=O [Example Compound 68, 1,3-Dimethyl-8-(((4-oxo-3-phenethyl-3,4-dihydropteridin-2-yl)thio)methyl)-3,9-dihydro-1H-purine-2,6-dione] | 5.85 | –
O=C(CSc1nc2nccnc2c(=O)n1CCc1ccccc1)Nc1nc(C(=O)N2CCOCC2)cs1 [Example Compound 25, N-(4-(Morpholine-4-carbonyl)thiazol-2-yl)-2-((4-oxo-3-phenethyl-3,4-dihydropteridin-2-yl)thio)acetamide] | 5.46 | –
O=c1c2nccnc2nc(SCc2nc3ccccc3[nH]2)n1[C@@H]1C[C@H]1c1ccccc1 (relative stereo) [Example Compound 99, trans-2-(((1H-Benzo[d]imidazol-2-yl)methyl)thio)-3-(2-phenylcyclopropyl)pteridin-4(3H)-one] | 5.74 | –
